Experimental data from patent publication US20150344957A1, “MONITORING TREATMENT OF HISTIOCYTOSIS WITH VEMURAFENIB AND DABRAFENIB” (TROVAGENE, INC., priority 2014, published 2015).
“Also recorded” adds a separate entry of the source.

System: BRAF V600E mutation in urinary cfDNA
Experiment: Monitoring of BRAF V600E mutation in urinary cfDNA (droplet digital PCR) of treated LCH/ECD patients
Format: in vivo, human
Settings: for detection of mutant BRAF V600E in urine cfDNA, treatment naive versus treated patient samples: FIG. 3, treated versus treatment-naive samples; for BRAF V600E mutation burden in urinary cfDNA over time on therapy: histiocytosis (LCH/ECD) patients, serial urine samples during treatment, FIG. 4-6
Protocol: Urinary cell-free (cf)DNA analysis was performed in all patients and plasma cfDNA analysis in 19/26 patients. Serial urinary samples in 10 BRAF V600E mutant samples were also obtained to track disease burden with therapy. Urine and plasma cfDNA were quantified by a droplet digital PCR (ddPCR; QX-100, BioRad).
A two-step assay design was developed for a 28-30 basepair footprint in the target mutant gene sequence. FIG. 1 summarizes the assay design, which includes a first preamplification step to increase the number of copies of a target mutant gene sequence relative to wild-type gene sequences that are present in the sample. The pre-amplification is conducted in the presence of a wild-type (non-mutant) suppressing “WT blocker” oligonucleotide that is complementary to the wild-type sequence (but not the mutant sequence) to decrease amplification of wild-type DNA. The pre-amplification is performed with primers that include adapters (or “tags”) at the 5′ end to facilitate amplification in the second step.
The second step is additional amplification with primers complementary to the tags on the ends of the primers used in the first step and a TaqMan (reporter) probe oligonucleotide complementary to the mutant sequence for quantitative, digital droplet PCR.

CC(C)(C)c1nc(-c2cccc(NS(=O)(=O)c3c(F)cccc3F)c2F)c(-c2ccnc(N)n2)s1 [dabrafenib, N-{3-[5-(2-aminopyrimidin-4-yl)-2-tert-butyl-1,3-thiazol-4-yl]-2-fluorophenyl}-2,6-difluorobenzenesulfonamide] was tested, and the “detection of mutant BRAF V600E in urine cfDNA, treatment naive versus treated patient samples” value was “decreased detection of mutant BRAF V600E” and the “BRAF V600E mutation burden in urinary cfDNA over time on therapy” value was “a decrease in the mutation in cfDNA during the course of treatment”.

In the case of CCCS(=O)(=O)Nc1ccc(F)c(C(=O)c2c[nH]c3ncc(-c4ccc(Cl)cc4)cc23)c1F [vemurafenib, N-{3-[5-(4-Chlorophenyl)-1H-pyrrolo[2,3-b]pyridin-3-carbonyl]-2,4-difluorophenyl}propane-1-sulfonamide], the “detection of mutant BRAF V600E in urine cfDNA, treatment naive versus treated patient samples” value is reported as “decreased detection of mutant BRAF V600E”, the “BRAF V600E mutation burden in urinary cfDNA over time on therapy” value is reported as “a decrease in the mutation in urinary cfDNA; also recorded: decreased BRAF mutant allele burden with therapy” and the “BRAF V600E mutation in urinary cfDNA after the end of treatment” value (one subject, end of treatment, FIG. 6) is reported as “an increase, or “rebound,” in the amount of the mutation in urinary cfDNA”.
